Assay: excess molar enthalpy (molar enthalpy of mixing); xn = mol fraction of the nth substance listed
Settings: 100 kPa, Liquid, Calvet calorimetry

[Li] [lithium] + [Ga]
Settings | excess molar enthalpy [kcal/mol]
891 K, x1 = 0.7508 | -4.11
993 K, x1 = 0.1014 | -1.39
993 K, x1 = 0.2531 | -3.23
1018 K, x1 = 0.7505 | -3.9
1044 K, x1 = 0.4035 | -4.64
1044 K, x1 = 0.5023 | -5.04
1044 K, x1 = 0.6005 | -5.04
